Experimental data: the supplement of paper PMC8617591

Tests used:
[1] = tested on: Mycobacterium tuberculosis Erdman (autoluminescent); assay: AUC25, normalised area under dose response up to IC25 (three-drug combination) (fraction (0-1)); higher = more potent at low dose
Method: (§1)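 DiaMOND equipotent three-drug combination dose responses (10 doses, 1.5- or 2-fold spacing, centred on IC90) against autoluminescent M. tuberculosis Erdman in 8 in vitro models. Read-out is OD600, or luminescence for the intracellular and dormancy models, normalised to untreated wells. Hill-fit Einf, AUC25 and GRinf are potency metrics; FIC50 and FIC90 are total Loewe fractional inhibitory concentrations as log2 (negative = synergy).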

[2] = tested on: Mycobacterium tuberculosis Erdman (autoluminescent); assay: total FIC90 (Loewe) at 90% inhibition, three-drug combination (log2); higher = more antagonistic
Method: as §1

[3] = tested on: Mycobacterium tuberculosis Erdman (autoluminescent); assay: Einf, fitted maximum growth inhibition of three-drug combination (fraction); higher = stronger maximal inhibition
Method: as §1

[4] = tested on: Mycobacterium tuberculosis Erdman (autoluminescent); assay: GRinf, maximum normalised growth rate inhibition (three-drug combination) (unitless (-1 to 1)); higher = less effect (negative = killing)
Method: as §1

[5] = tested on: Mycobacterium tuberculosis Erdman (autoluminescent); assay: total FIC50 (Loewe) at 50% inhibition, three-drug combination (log2); higher = more antagonistic
Method: as §1

COc1nc2ccc(Br)cc2cc1[C@@H](c1ccccc1)[C@@](O)(CCN(C)C)c1cccc2ccccc12 [bedaquiline] + COc1c(N2C[C@@H]3CCCN[C@@H]3C2)c(F)cc2c(=O)c(C(=O)O)cn(C3CC3)c12 [moxifloxacin] + CO[C@H]1/C=C/O[C@@]2(C)Oc3c(C)c(O)c4c(O)c(c(/C=N/N5CCN(C6CCCC6)CC5)c(O)c4c3C2=O)NC(=O)/C(C)=C\C=C\[C@H](C)[C@H](O)[C@@H](C)[C@@H](O)[C@@H](C)[C@H](OC(C)=O)[C@@H]1C [rifapentine]
Settings	AUC25, [1]	Einf, [3]	GRinf, [4]	total FIC50, [5]	total FIC90, [2]
in vitro model: acidic pH 5.7, time point: constant (~7 days, model-specific)	0.0678	0.851	-0.0721	0.823	–
in vitro model: acidic pH 5.7, time point: terminal (~4-5 doublings, model-specific)	0.0653	0.994	-0.308	1.07	0.708
in vitro model: intracellular J774, time point: constant = terminal	–	0.932	-0.235	–	0.946

Settings	AUC25, [1]	Einf, [3]	GRinf, [4]	total FIC50, [5]	total FIC90, [2]
in vitro model: butyrate, time point: constant (~7 days, model-specific)	0.1	0.952	-0.132	0.844	0.676
in vitro model: butyrate, time point: terminal (~4-5 doublings, model-specific)	0.0773	0.977	-0.0985	0.876	0.991
in vitro model: cholesterol 0.05 mM, time point: constant (~7 days, model-specific)	0.0837	0.716	-0.256	0.531	–
in vitro model: cholesterol 0.05 mM, time point: terminal (~4-5 doublings, model-specific)	0.0604	0.905	-0.183	0.923	0.462
in vitro model: cholesterol-high 0.2 mM, time point: constant (~7 days, model-specific)	0.0607	0.949	-0.394	0.723	0.4
in vitro model: cholesterol-high 0.2 mM, time point: terminal (~4-5 doublings, model-specific)	0.0498	1	-0.57	0.949	0.645
in vitro model: dormancy (butyrate + nitrate, low O2), time point: constant (~7 days, model-specific)	0.0857	0.928	0.0745	0.868	1.67
in vitro model: dormancy (butyrate + nitrate, low O2), time point: terminal (~4-5 doublings, model-specific)	0.0736	0.997	-0.28	1.05	1.35
in vitro model: standard 7H9 glycerol, time point: constant = terminal	0.0761	0.966	-0.0766	0.73	0.338
in vitro model: valerate, time point: constant (~7 days, model-specific)	0.063	0.915	-0.117	1.01	–
in vitro model: valerate, time point: terminal (~4-5 doublings, model-specific)	0.0335	0.946	-0.0711	0.995	0.711

COc1nc2ccc(Br)cc2cc1[C@@H](c1ccccc1)[C@@](O)(CCN(C)C)c1cccc2ccccc12 [bedaquiline] + COc1c(N2C[C@@H]3CCCN[C@@H]3C2)c(F)cc2c(=O)c(C(=O)O)cn(C3CC3)c12 [moxifloxacin] + CO[C@H]1/C=C/O[C@@]2(C)Oc3c(C)c(O)c4c(O)c(c(/C=N/N5CCN(C)CC5)c(O)c4c3C2=O)NC(=O)/C(C)=C\C=C\[C@H](C)[C@H](O)[C@@H](C)[C@@H](O)[C@@H](C)[C@H](OC(C)=O)[C@@H]1C [rifampicin]
Settings	AUC25, [1]	Einf, [3]	GRinf, [4]	total FIC50, [5]	total FIC90, [2]
in vitro model: acidic pH 5.7, time point: constant (~7 days, model-specific)	0.0637	0.833	-0.0329	0.708	–
in vitro model: acidic pH 5.7, time point: terminal (~4-5 doublings, model-specific)	0.0621	0.98	-0.13	1.07	0.594
in vitro model: intracellular J774, time point: constant = terminal	–	0.938	-0.427	–	0.931

Settings	AUC25, [1]	Einf, [3]	GRinf, [4]	total FIC50, [5]	total FIC90, [2]
in vitro model: butyrate, time point: constant (~7 days, model-specific)	0.12	0.964	-0.414	0.594	0.579
in vitro model: butyrate, time point: terminal (~4-5 doublings, model-specific)	0.105	0.99	-0.247	0.573	1.1
in vitro model: cholesterol 0.05 mM, time point: constant (~7 days, model-specific)	0.0826	0.745	-0.166	0.0975	–
in vitro model: cholesterol 0.05 mM, time point: terminal (~4-5 doublings, model-specific)	0.074	0.866	-0.045	1.13	-0.616
in vitro model: cholesterol-high 0.2 mM, time point: constant (~7 days, model-specific)	0.057	0.957	-0.452	0.677	0.0311
in vitro model: cholesterol-high 0.2 mM, time point: terminal (~4-5 doublings, model-specific)	0.0547	1	-0.61	0.955	0.594
in vitro model: dormancy (butyrate + nitrate, low O2), time point: constant (~7 days, model-specific)	0.0876	0.925	0.215	0.688	0.901
in vitro model: dormancy (butyrate + nitrate, low O2), time point: terminal (~4-5 doublings, model-specific)	0.0619	0.982	-0.201	0.97	1.03
in vitro model: standard 7H9 glycerol, time point: constant = terminal	0.0774	0.96	-0.141	0.732	–
in vitro model: valerate, time point: constant (~7 days, model-specific)	0.046	0.884	-0.0825	1.19	–
in vitro model: valerate, time point: terminal (~4-5 doublings, model-specific)	0.0316	0.953	-0.044	1.1	0.726

COc1nc2ccc(Br)cc2cc1[C@@H](c1ccccc1)[C@@](O)(CCN(C)C)c1cccc2ccccc12 [bedaquiline] + COc1c(N2C[C@@H]3CCCN[C@@H]3C2)c(F)cc2c(=O)c(C(=O)O)cn(C3CC3)c12 [moxifloxacin] + NC(=O)c1cnccn1 [pyrazinamide]
Settings	AUC25, [1]	Einf, [3]	GRinf, [4]	total FIC50, [5]	total FIC90, [2]
in vitro model: acidic pH 5.7, time point: constant (~7 days, model-specific)	0.0871	0.847	-0.43	0.0701	–
in vitro model: acidic pH 5.7, time point: terminal (~4-5 doublings, model-specific)	0.0844	0.984	-0.325	0.276	-0.165
in vitro model: intracellular J774, time point: constant = terminal	–	0.982	-0.385	–	0.89

Settings	AUC25, [1]	Einf, [3]	GRinf, [4]	total FIC50, [5]	total FIC90, [2]
in vitro model: butyrate, time point: constant (~7 days, model-specific)	0.108	0.952	-0.798	0.562	1.12
in vitro model: butyrate, time point: terminal (~4-5 doublings, model-specific)	0.0863	0.987	-0.741	0.738	1.18
in vitro model: cholesterol 0.05 mM, time point: constant (~7 days, model-specific)	0.113	0.762	-0.387	–	–
in vitro model: cholesterol 0.05 mM, time point: terminal (~4-5 doublings, model-specific)	0.115	0.95	-0.419	0.205	2.28
in vitro model: cholesterol-high 0.2 mM, time point: constant (~7 days, model-specific)	0.0866	0.981	-0.58	0.399	–
in vitro model: cholesterol-high 0.2 mM, time point: terminal (~4-5 doublings, model-specific)	0.0915	1	-0.586	0.406	0.558
in vitro model: dormancy (butyrate + nitrate, low O2), time point: constant (~7 days, model-specific)	0.0687	0.928	0.247	-0.56	-0.988
in vitro model: dormancy (butyrate + nitrate, low O2), time point: terminal (~4-5 doublings, model-specific)	0.0596	0.987	-0.0885	0.109	-0.187
in vitro model: standard 7H9 glycerol, time point: constant = terminal	0.0806	0.969	-0.108	–	–
in vitro model: valerate, time point: constant (~7 days, model-specific)	0.102	0.916	-0.131	0.831	–
in vitro model: valerate, time point: terminal (~4-5 doublings, model-specific)	0.06	0.949	-0.0556	0.778	1.03
